From patent US20090215717A1, “Sulfated oligosaccharides” (Ivax Drug Research Institute Ltd., priority 2004, published 2009)
Counter-ions that a name gives are not always drawn. Like-named read-outs stand apart in the source and are kept apart here.

Columns and labels:
IP-3 receptor = molecular target: T1, IP-3 receptor (Rattus norvegicus, UniProt P29994); experiment: IP-3 receptor antagonistic effect, rat cerebellum membrane preparations (Model 5); format: binding; settings: for IC50 Average ± SEM (n) / IC50: inhibition of IP-3 binding
T1 construct: rat cerebellum membrane preparations; from tissue; host or cells: rat cerebellum (microsomal membrane preparation)
Protocol: The sulfated oligosaccharides of the present invention, depending on their chemical structure, inhibit the binding of inositol-1,4,5-trisphophate […] to its receptor in microsomal membrane preparations. As IP-3 is a messenger molecule playing distinguished role in the activation of different cells, interfering with this function can explain the anti-asthmatic effect of these sulfated oligosaccharides.
The IP-3 antagonist effect of the sulfated oligosaccharides was determined using rat cerebellum membrane preparations according to Worley et al. (JBC 262, 12132, 1987).

BN rats [1] = experiment: Allergen stimulated mucus production of airways epithelial cells, PAS(+) cell count (Model 2); format: in vivo, rat; settings: for number of PAS(+) cells as percent of total number of cells (average ± SEM): lungs 48 h after challenge, challenge 27.6 ± 3.5, control 2.9 ± 0.9
Protocol: Sensitized BN rats were treated intratracheally with 0.01 or 1.0 mg/kg dose of compound of formula (IIA), two hours before antigenic challenge, using a similar protocol described in Model 1. Lungs were collected 48 hours after challenge and were fixed in 8% phophospate buffered formaldehyde. Samples were then processed for histochemistry routinely. 5 μm thick sections were stained with periodic-acid-Schiff (PAS) reagents and were counterstained with haematoxylin-eosine. On the sections each epithelial cells of the airways were counted in the whole preparation at a magnification of 400×. The number of PAS(+) [mucus producing] epithelial cells was expressed as the ratio of the […] of epithelial cells.
As it is shown in Table 2, allergen challenge stimulates the mucus production of airways epithelial cells (control vs. challenge).

BN rats [2] = experiment: Perivascular oedema in asthmatic lung tissue (Model 3); format: in vivo, rat; settings: for Oedema: area of oedema relative to area of vasculature (average ± SEM): lungs 48 h after challenge, challenge 224 ± 17, control 71 ± 7
Protocol: Sensitized BN rats were treated intratracheally with 0.01 and 1.0 mg/kg dose of compound of formula (IIA), two hours before antigenic challenge, using a similar protocol described in Model 1. Lungs were collected 48 hours after challenge and were fixed in 8% phosphate buffered formaldehyde. Samples were then processed for histochemistry routinely. […] thick sections were stained with periodic-acid-Schiff (PAS) reagents and were counterstained with haematoxylin-eosine. On the sections the areas of the connective tissue around the vasculare were determined and expressed as a ratio of the area of the corresponding blood vessel itself.

BN rats [3] = experiment: Eosinophilia in bronchoalveolar lavage fluid (Model 4); format: in vivo, rat; settings: for Eosinophil: eosinophil number/ml BALF (average ± SEM): BALF 48 h after challenge, challenge 1.00 ± 0.16, control 0.35 ± 0.04
Protocol: Sensitized BN rats were treated intratracheally with 0.01 and 1.0 mg/kg dose of compound of formula (IIA); two hours before antigenic challenge, using a similar protocol described in Model 1. Bronchoalveolar lavage fluids (BALF) were collected 48 hours after challenge and after staining, the number of eosinophils were determined.
As it is shown in Table 4, allergen challenge causes an increase in the number of eosinophils in the bronchioalveolar lavage.

Brown Norway (BN) rats = experiment: Tracheal contraction to acetylcholine ex vivo after antigen challenge of ovalbumin-sensitized BN rats (Model 1); format: in vivo, rat; settings: for MAX: contraction at maximal Ach concentration relative to control (mean ± SEM): placebo 220 ± 30, control 100 ± 0; for ED50: log M acetylcholine (Ach), causing 50% contraction relative to control (mean ± SEM): trachea 48 h post challenge, placebo 6.10 ± 0.30, control 5.16 ± 0.08
Protocol: Examination of the effect of locally administered sulfated oligosaccharides on airways' hyper-responsiveness ex vivo.
Brown Norway (BN) rats were actively sensitized to ovalbumin (OA) by a subcutaneous injection of 0.5 ml of OA/Al(OH)3 gel mixture (2 mg OA+10 g Al(OH)3/100 ml saline) on day 1 with subsequent subcutaneous injections (10 mg OA+10 g Al(OH)3/100 ml saline) given on days 14 and 21. On day 28, animals received the compound of formula (IIA) intratracheally (0.01 or 1.0 mg/kg dose) 2 hours before antigen challenge. Antigen challenge was performed by inhalation of nebulised ovalbumin (1% antigen solution administered in a TSE inhalation system for 1 hour). Animals were sacrificed 48 hours post antigen challenge wherein the tracheas were removed to an organ bath. Dissected tracheas were allowed to equilibrate for 30 minutes before measuring tracheal spasmogenic response curves to acetylcholine (Ach).
As shown in Table 1 ovalbumin challenge of sensitized animals in this model caused a significant tracheal hyper-reactivity to acetylcholine, when the response to the spasmogenic agent was determined 48 h after antigen challenge.

[4] = 0.01 mg/kg intratracheally 2 h before challenge
[5] = 1.0 mg/kg intratracheally 2 h before challenge
[6] = higher dose (1.0 mg/kg intratracheally)
[7] = 0.01 mg/kg intratracheally 2 h before antigen challenge
[8] = 1.0 mg/kg intratracheally 2 h before antigen challenge

T1 sequence (P29994 whole entry): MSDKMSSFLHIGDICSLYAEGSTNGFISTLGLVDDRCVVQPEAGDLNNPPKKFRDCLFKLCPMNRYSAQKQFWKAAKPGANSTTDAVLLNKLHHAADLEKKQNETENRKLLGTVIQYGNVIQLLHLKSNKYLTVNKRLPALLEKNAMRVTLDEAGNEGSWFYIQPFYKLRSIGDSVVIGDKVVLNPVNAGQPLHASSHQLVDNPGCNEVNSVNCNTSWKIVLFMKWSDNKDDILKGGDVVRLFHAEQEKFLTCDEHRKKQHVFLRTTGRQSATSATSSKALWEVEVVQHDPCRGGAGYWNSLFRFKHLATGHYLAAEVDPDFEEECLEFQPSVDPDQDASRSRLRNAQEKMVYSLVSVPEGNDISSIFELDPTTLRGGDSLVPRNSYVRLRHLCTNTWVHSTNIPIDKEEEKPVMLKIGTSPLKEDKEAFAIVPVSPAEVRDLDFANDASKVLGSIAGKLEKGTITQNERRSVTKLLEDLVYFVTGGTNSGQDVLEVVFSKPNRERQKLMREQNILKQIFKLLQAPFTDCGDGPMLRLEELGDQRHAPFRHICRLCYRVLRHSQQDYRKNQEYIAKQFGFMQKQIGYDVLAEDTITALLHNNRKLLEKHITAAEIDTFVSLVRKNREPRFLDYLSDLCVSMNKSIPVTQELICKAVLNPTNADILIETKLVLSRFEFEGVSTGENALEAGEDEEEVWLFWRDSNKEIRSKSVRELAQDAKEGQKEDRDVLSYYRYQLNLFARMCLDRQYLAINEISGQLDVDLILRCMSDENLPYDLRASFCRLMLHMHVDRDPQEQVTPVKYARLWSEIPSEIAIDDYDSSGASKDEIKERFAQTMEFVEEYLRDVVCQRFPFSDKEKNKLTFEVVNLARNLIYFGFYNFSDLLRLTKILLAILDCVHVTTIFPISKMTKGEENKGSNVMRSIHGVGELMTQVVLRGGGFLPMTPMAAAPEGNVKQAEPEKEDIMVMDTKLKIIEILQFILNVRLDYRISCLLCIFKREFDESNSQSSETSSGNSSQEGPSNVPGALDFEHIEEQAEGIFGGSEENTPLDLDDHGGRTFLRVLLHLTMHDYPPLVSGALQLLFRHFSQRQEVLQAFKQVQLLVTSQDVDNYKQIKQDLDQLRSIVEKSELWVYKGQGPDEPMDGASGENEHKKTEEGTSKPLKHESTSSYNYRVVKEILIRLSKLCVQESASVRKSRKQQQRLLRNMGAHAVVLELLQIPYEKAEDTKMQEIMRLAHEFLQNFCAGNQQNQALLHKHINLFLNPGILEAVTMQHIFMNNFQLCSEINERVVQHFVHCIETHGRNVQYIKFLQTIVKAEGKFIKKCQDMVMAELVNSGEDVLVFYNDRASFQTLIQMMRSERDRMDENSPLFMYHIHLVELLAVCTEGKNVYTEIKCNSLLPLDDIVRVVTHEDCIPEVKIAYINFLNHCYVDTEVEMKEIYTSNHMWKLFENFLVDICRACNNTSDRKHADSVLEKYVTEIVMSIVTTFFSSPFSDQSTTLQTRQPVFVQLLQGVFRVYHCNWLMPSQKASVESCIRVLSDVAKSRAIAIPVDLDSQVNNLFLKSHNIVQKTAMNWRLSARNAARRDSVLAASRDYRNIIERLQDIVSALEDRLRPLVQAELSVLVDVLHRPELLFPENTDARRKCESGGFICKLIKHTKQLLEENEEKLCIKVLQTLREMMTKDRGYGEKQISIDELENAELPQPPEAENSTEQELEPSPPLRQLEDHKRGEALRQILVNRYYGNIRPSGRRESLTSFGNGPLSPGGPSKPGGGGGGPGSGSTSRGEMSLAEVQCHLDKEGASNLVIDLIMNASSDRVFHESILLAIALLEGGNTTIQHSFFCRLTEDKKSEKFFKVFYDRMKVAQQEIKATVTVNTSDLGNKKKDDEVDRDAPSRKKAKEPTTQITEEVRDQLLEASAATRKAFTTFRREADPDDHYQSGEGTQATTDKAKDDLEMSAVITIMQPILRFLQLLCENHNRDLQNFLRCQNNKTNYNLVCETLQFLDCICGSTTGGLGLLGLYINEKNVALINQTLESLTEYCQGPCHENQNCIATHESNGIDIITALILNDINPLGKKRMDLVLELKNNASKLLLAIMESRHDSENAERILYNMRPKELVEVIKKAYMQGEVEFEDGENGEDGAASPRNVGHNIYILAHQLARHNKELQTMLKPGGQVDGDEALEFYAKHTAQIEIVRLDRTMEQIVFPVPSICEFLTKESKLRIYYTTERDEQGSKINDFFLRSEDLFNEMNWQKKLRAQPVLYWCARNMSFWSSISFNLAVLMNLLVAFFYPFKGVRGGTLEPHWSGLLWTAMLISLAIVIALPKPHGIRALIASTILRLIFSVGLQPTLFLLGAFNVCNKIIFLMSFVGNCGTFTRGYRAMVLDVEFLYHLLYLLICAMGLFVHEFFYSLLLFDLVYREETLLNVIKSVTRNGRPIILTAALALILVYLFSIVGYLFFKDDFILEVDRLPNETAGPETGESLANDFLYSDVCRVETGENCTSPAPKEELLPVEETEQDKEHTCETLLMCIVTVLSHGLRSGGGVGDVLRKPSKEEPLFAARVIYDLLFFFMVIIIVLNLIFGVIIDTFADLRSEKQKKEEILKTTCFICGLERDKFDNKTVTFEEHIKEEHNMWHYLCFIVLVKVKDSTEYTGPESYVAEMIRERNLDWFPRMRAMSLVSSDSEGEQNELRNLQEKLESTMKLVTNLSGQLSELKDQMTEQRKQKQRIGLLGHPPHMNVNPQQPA

| IC50 (IP-3 receptor; read-out: Average IC50) [µM] | IC50 (IP-3 receptor; read-out: IC50 Average ± SEM (n) (converted)) [µM] | SMILES | IP-3 antagonist activity (in words) (IP-3 receptor) | IC50 Average ± SEM (n) (IP-3 receptor) | effect on number of PAS(+), mucus producing cells (in words) (BN rats [1]; 0.01 mg/kg intratracheally) | number of PAS(+) cells as percent of total number of cells (average ± SEM) (BN rats [1]; [4]) [%] | number of PAS(+) cells as percent of total number of cells (average ± SEM) (BN rats [1]; [5]) [%] | effect on number of PAS(+), mucus producing cells (in words) (BN rats [1]; [6]) | Oedema: area of oedema relative to area of vasculature (average ± SEM) (BN rats [2]; [4]) | Oedema: area of oedema relative to area of vasculature (average ± SEM) (BN rats [2]; [5]) | effect on extent of oedema around the vasculature (in words) (BN rats [2]; [6]) | Eosinophil: eosinophil number/ml BALF (average ± SEM) (BN rats [3]; [4]) [eosinophil number/ml BALF] | Eosinophil: eosinophil number/ml BALF (average ± SEM) (BN rats [3]; [5]) [eosinophil number/ml BALF] | effect on number of eosinophils in the bronchioalveolar lavage (in words) (BN rats [3]; higher doses (1.0 mg/kg intratracheally)) | effect on number of eosinophils in the bronchioalveolar lavage (in words) (BN rats [3]; smallest dose (0.01 mg/kg intratracheally)) | MAX: contraction at maximal Ach concentration relative to control (mean ± SEM) (Brown Norway (BN) rats; [7]) | ED50: log M acetylcholine (Ach), causing 50% contraction relative to control (mean ± SEM) (Brown Norway (BN) rats; [7]) [log M] | MAX: contraction at maximal Ach concentration relative to control (mean ± SEM) (Brown Norway (BN) rats; [8]) | ED50: log M acetylcholine (Ach), causing 50% contraction relative to control (mean ± SEM) (Brown Norway (BN) rats; [8]) [log M] | effect on tracheal hyper-reactivity to acetylcholine (in words) (Brown Norway (BN) rats; both applied doses (0.01 and 1.0 mg/kg intratracheally)) |
| --- | --- | --- | --- | --- | --- | --- | --- | --- | --- | --- | --- | --- | --- | --- | --- | --- | --- | --- | --- | --- |
| 0.238 |  | O=S(=O)([O-])OC[C@H]1O[C@H](OC[C@H]2O[C@H](O[C@]3(COS(=O)(=O)[O-])O[C@H](COS(=O)(=O)[O-])[C@@H](OS(=O)(=O)[O-])[C@@H]3OS(=O)(=O)[O-])[C@H](OS(=O)(=O)[O-])[C@@H](OS(=O)(=O)[O-])[C@@H]2OS(=O)(=O)[O-])[C@H](OS(=O)(=O)[O-])[C@@H](OS(=O)(=O)[O-])[C@H]1OS(=O)(=O)[O-].[K+].[K+].[K+].[K+].[K+].[K+].[K+].[K+].[K+].[K+].[K+] [IIC, raffinose undecasulfate undeca potassium salt] | significant IP-3 antagonist activity | 0.43 ± 0.05 (3) μg/ml |  |  |  |  |  |  |  |  |  |  |  |  |  |  |  |  |
| 0.194 | 0.244 | O=S(=O)(O)OC[C@H]1O[C@H](O[C@H]2O[C@H](COS(=O)(=O)O)[C@@H](OS(=O)(=O)O)[C@H](OS(=O)(=O)O)[C@H]2OS(=O)(=O)O)[C@H](OS(=O)(=O)O)[C@@H](OS(=O)(=O)O)[C@@H]1OS(=O)(=O)O [IIB, trehalose octasulfate octa potassium salt] |  |  |  |  |  |  |  |  |  |  |  |  |  |  |  |  |  |  |

| SMILES | IC50 (IP-3 receptor; read-out: Average IC50) [µM] | IC50 (IP-3 receptor; read-out: IC50 Average ± SEM (n) (converted)) [µM] | IP-3 antagonist activity (in words) (IP-3 receptor) | IC50 Average ± SEM (n) (IP-3 receptor) | effect on number of PAS(+), mucus producing cells (in words) (BN rats [1]; 0.01 mg/kg intratracheally) | number of PAS(+) cells as percent of total number of cells (average ± SEM) (BN rats [1]; [4]) [%] | number of PAS(+) cells as percent of total number of cells (average ± SEM) (BN rats [1]; [5]) [%] | effect on number of PAS(+), mucus producing cells (in words) (BN rats [1]; [6]) | Oedema: area of oedema relative to area of vasculature (average ± SEM) (BN rats [2]; [4]) | Oedema: area of oedema relative to area of vasculature (average ± SEM) (BN rats [2]; [5]) | effect on extent of oedema around the vasculature (in words) (BN rats [2]; [6]) | Eosinophil: eosinophil number/ml BALF (average ± SEM) (BN rats [3]; [4]) [eosinophil number/ml BALF] | Eosinophil: eosinophil number/ml BALF (average ± SEM) (BN rats [3]; [5]) [eosinophil number/ml BALF] | effect on number of eosinophils in the bronchioalveolar lavage (in words) (BN rats [3]; higher doses (1.0 mg/kg intratracheally)) | effect on number of eosinophils in the bronchioalveolar lavage (in words) (BN rats [3]; smallest dose (0.01 mg/kg intratracheally)) | MAX: contraction at maximal Ach concentration relative to control (mean ± SEM) (Brown Norway (BN) rats; [7]) | ED50: log M acetylcholine (Ach), causing 50% contraction relative to control (mean ± SEM) (Brown Norway (BN) rats; [7]) [log M] | MAX: contraction at maximal Ach concentration relative to control (mean ± SEM) (Brown Norway (BN) rats; [8]) | ED50: log M acetylcholine (Ach), causing 50% contraction relative to control (mean ± SEM) (Brown Norway (BN) rats; [8]) [log M] | effect on tracheal hyper-reactivity to acetylcholine (in words) (Brown Norway (BN) rats; both applied doses (0.01 and 1.0 mg/kg intratracheally)) |
| --- | --- | --- | --- | --- | --- | --- | --- | --- | --- | --- | --- | --- | --- | --- | --- | --- | --- | --- | --- | --- |
| O=S(=O)([O-])OC[C@H]1O[C@@](COS(=O)(=O)[O-])(O[C@H]2O[C@H](COS(=O)(=O)[O-])[C@@H](OS(=O)(=O)[O-])[C@H](OS(=O)(=O)[O-])[C@H]2OS(=O)(=O)[O-])[C@@H](OS(=O)(=O)[O-])[C@@H]1OS(=O)(=O)[O-].[Na+].[Na+].[Na+].[Na+].[Na+].[Na+].[Na+].[Na+] [IIA, sucrose octasulfate octa sodium salt] | 0.208 |  | significant IP-3 antagonist activity | 0.26 ± 0.05 (4) μg/ml | notably | 19.2 ± 2.7 | 7.3 ± 1.4 | statistically significantly decreased | 177 ± 10 | 119 ± 7 | significantly decreased | 0.89 ± 0.13 | 0.70 ± 0.08 | the decrease become statistically significant | decreases the extent of it | 167 ± 36 | 4.73 ± 0.50 | 131 ± 22 | 4.98 ± 0.30 | notably decreased this elevation |
